How the values were obtained:
Assay type in all cases: functional, organism-based
Rattus norvegicus [1] = assay: Concentration at which decrease blood pressure of anesthetized rat when administered intravenously; 50-6400 ug/kg body weight
Rattus norvegicus [2] = assay: Concentration at which increase cardiac inotropism of anesthetized rat when administered intravenously was observed; 50-6400 ug/kg body weight
Rattus norvegicus [3] = assay: Concentration at which increase in respiratory frequency of anesthetized rat when administered intravenously was observed; 50-6400 ug/kg body weight
Rattus norvegicus [4] = assay: Concentration at which increase in tidal volume of anesthetized rat when administered intravenously was observed; 50-6400 ug/kg body weight
Rattus norvegicus [5] = assay: Concentration at which no change in heart rate of anesthetized rat when administered intravenously was observed; 50-6400 ug/kg body weight

Measured: Concentration

COc1ccc(/C=C\C(=O)NCCCC/N=C(\N)NCC=C(C)C)cc1OC
50 µg/kg: Rattus norvegicus [1] | Rattus norvegicus [2] | Rattus norvegicus [3] | Rattus norvegicus [4] | Rattus norvegicus [5]
